According to patent US4959182A, “Method and compositions providing enhanced chemiluminescence from 1,2-dioxetanes” (priority 1989, dated 1990):
Where a name gives a salt, the structure may show the parent alone. Read-outs that look alike come from different tables or passages of the source.

What was measured:
[1] = Fluoride-triggered chemiluminescence of silyl-protected dioxetane
Description: However, the chemiluminescent decomposition of this dioxetane can be conveniently triggered at room temperature by removal of the silyl-protecting with fluoride ion to generate the unstable, aryloxide form which cleaves to yield intense blue light.

[2] = Base-triggered chemiluminescence of dioxetanes 2a/2b in DMSO, water, CTAB micelles and micelles with fluorescent co-surfactant
Description: The chemiluminescence quantum yield (.PHI.CL) for the decomposition of dioxetanes is defined as the ratio of einsteins of chemiluminescence emitted to moles of dioxetane decomposed. Sufficient energy is released during the reaction from the reaction enthalpy (ΔHR) plus the Arrhenius activation energy (Ea) to populate the singlet excited state of one of the carbonyl cleavage products. Therefore, the maximum quantum yield is 1.0. Another parameter of interest is the chemiexcitation quantum yield (.PHI.CE) which is defined as the ratio of excited states formed to dioxetane decomposed. The chemiexcitation quantum yield is related to the chemiluminescence quantum yield via the fluorescence quantum yield of the dioxetane cleavage (.PHI.F) through the equation: .phi.CL =.phi.CE X .phi.F.
(§1) The same procedure as those employed in the measurement of the decay kinetics was used for the determination of chemiluminescence quantum yields with the following modifications. An accurately measured aliquot of a dioxetane stock solution of known concentration was added to 3 mL of the pre-thermostatted organic solvent or aqueous buffer. The reaction was then triggered by adding the appropriate chemical reagent or enzyme. The total light intensity was integrated by a photon-counting luminometer using an RCA A-31034A gallium-arsenide PMT cooled to -78° C.
Spectra of the chemiluminescence from chemically or enzymatcally triggered dioxetanes were obtained by conducting the reaction in a 1-cm square quartz cuvette in the sample compartment of a Spex Fluorolog spectrofluorometer at ambient temperature. Correction for the decay of the chemiluminescence intensity during the wavelength scan was made by accumulating the spectrum in a ratio mode so that the observed spectrum was divided by the signal from an auxiliary detector (EMI 9781B) which measures the total signal as a function of time. The monochromator bandpass was typically 18 nm. For weakly emitting samples, several identical scans were performed and added together to improve the signal-to-noise ratio.
1. Triggering the Chemiluminescence of Hydroxy-Substituted Dioxetane 2a with Base.
2. […] Cationic surfactants such as cetyltrimethylammonium bromide (CTAB) can be used to increase rates for chemical triggering of chemiluminescence from appropriately substituted dioxetanes in aqueous solution. […] The dioxetane is solubilized in the micelles formed by the surfactant and NaOH is added to initiate the chemiluminescence. […] Typically, the experiments were carried out with [2b]=9.1×10^-5 M, [CTAB]=2×10^-3 M, and [OH^- ]=9.1×10^-5 M at 37° C.
Similar experiments were conducted with the benzothiazamide surfactant 4. […] Enzymatic Triggering of Phosphate-Substituted Dioxetane 2c.

[3] = assay type: physicochemical; conditions: for half-life: in xylene, read-out: t1/2 at 25° C. (converted); for half-life / k(sec^-1) at 25° C.: 25° C.
Method: Rates for thermal decomposition of the stable dioxetanes were monitored by the decay of chemiluminescence of aerated solutions. A cylindrical Pyrex vial equipped with magnetic stir bar was filled with 3-4 mL of the reaction solvent, sealed with a Teflon-lined screw cap and placed in the thermostatted sample block of the chemiluminescence-measuring luminometer. Temperature control was provided by an external circulating water bath. Appropriate values for the instrument gain and optical slit size were selected. […]. The vial was sealed with a Teflon-lined screw cap to prevent evaporation when high temperatures were used. Measurement of the signal was begun by opening the shutter. The chemiluminescent decay was generally recorded for at least three half-lives. Calculation of the first-order rate constant (k) from the In (Intensity) vs. time data was performed by a computer program utilizing a standard least-squares treatment. The correlation coefficient (r) was typically at least 0.999 and k varied less than 5% between replicate samples.
Activation parameters for decomposition of the dioxetanes were calculated from plots of In k vs. 1/T (Arrhenius eq.) or In k/t vs. 1/T (Eyring eq.) by a standard least-squares linear regression analysis.
Activation Energies for Thermal Decomposition of Dioxetanes

S-antigen = experiment: Chemiluminescent ELISA for S-antigen with dioxetane 2c and alkaline phosphatase conjugate
Description: 4. Chemiluminescent Enzyme-Linked Assays. Enzymatic triggering of appropriately substituted dioxetanes provides an ultrasensitive detection method for enzyme-linked biological assays. For example, phosphate-substituted dioxetane 2c can be used with enzyme linked immunoassays and DNA probes that utilize alkaline phosphatase as the marker for detection. Previous detection methods make use of substrates which develop a color or become fluorescent upon reaction with this enzyme. The sensitivity of the chemiluminescent technique with dioxetane 2c is illustrated by an enzyme-linked immunosorbant assay (ELISA) for the retinal protein, S-antigen. Using procedures of L. A. Donoso (L. A. Donoso, C. F. Merryman, K. E. Edelberg, R. Naids, and C. Kalsow, Investigative Ophthalmology & Visual Science, 26, 561 (1985)), a series of 7 Immulon™ wells were coated with varying amounts of S-antigen (112, 56, 28, 14, 7, 3, 1.3 ng), reacted with a monoclonal antibody (MAbA9-C6) developed in mouse, and finally reacted with anti-mouse IgG coupled to alkaline phosphatase. A chemiluminescence assay of each well was then conducted individually by adding 100 μL of 221 buffer (0.75 M, pH 9.1) containing Mg(OAc)2 (8.0×10^-4 M), CTAB (1.13×10^-3 M), and fluorescein surfactant 3 (5.6×10^-5 M). […] The reagent background luminescence is very low and constant at 15 - 20 counts/sec (FIG. 13). […] Following the experiments with the luminometer, the wells containing the same solution were subsequently used for a photographic detection experiment (FIG. 15). The 7 wells were placed in a holder and incubated for 30 minutes at 37° C. and then photographed at that temperature with ASA 3000 Polaroid™Type 57 film for 15 min in a light-tight incubator. […] The reproducibility of the photographic assay is illustrated in FIG. 16. Four wells coated with 50 ng of antigen were treated with buffer and dioxetane as above, incubated for 1 hour at 45° C., and then photographed with the film for 30 sec at that temperature.

[4] = system: Alkaline Phosphatase from Human Blood Serum; experiment: Triggering the chemiluminescence of 2c with alkaline phosphatase from human blood serum; assay type: biochemical
Method: 1. Triggering the Chemiluminescence of 2c with Alkaline Phosphatase from Human Blood Serum. A stock solution of dioxetane 2c was prepared in dioxane/water (1:1 v/v) by photooxygenation of 1c. A sample of fresh blood was drawn from a healthy donor and the red blood cells removed by centrifugation to provide serum for the experiments. Treatment of 3 mL of a 10^-5 M solution of 2c in 0.75 M 2-amino-2-methyl-1-propanol (221) buffer (pH 10.3) at 37° C. with 100 μL of serum led to the typical intensity vs. time profile shown in FIG. 3 where the serum is injected at time zero. Under these conditions the light intensity reaches a constant level of approximately 2.3×10^4 counts/sec. The background luminescence signal from non-enzymatic hydrolysis of 2c is less than 0.05% of the enzyme-generated value. […] The light intensity at any other time point can also be conveniently used to provide a direct measure of the enzyme concentration (FIG. 5). [drawing 31]

[5] = system: Alkaline Phosphatase from Bovine Intestinal Mucosa; experiment: Triggering the chemiluminescence of 2c with alkaline phosphatase from bovine intestinal mucosa; assay type: biochemical
Method: as §1
2. Triggering the Chemiluminescence of 2c with Alkaline Phosphatase from Bovine Intestinal Mucosa. Alkaline phosphatase from bovine intestinal mucosa was obtained from Sigma Chemical Co. as a suspension of 5.1 mg of protein per mL of 3.2 M (NH4)2 SO4 solution. […] 3. Triggering the Chemiluminescence of 2c with Alkaline Phosphatase: Enhanced Chemiluminescence Efficiency via Intermolecular Energy Transfer in Aqueous Micelles. […] Alkaline phosphatase experiments with dioxetane 2c were conducted at 37° C. with 3 mL of a solution containing: 2c (4.3×10^-5 M), 221 buffer (0.75 M, pH 9.1), Mg(OAc)2 (8.0×10^-4 M), CTAB (1.13×10^-3 M), and fluorescein surfactant 3 (5.6×10^-5 M).
To test the sensitivity of this chemiluminescence method for evaluating concentrations of alkaline phosphatase in solution, a series of experiments were carried out using enzyme stock solutions prepared by dilutions of the commercial sample obtained from Sigma. A conservative estimate of the concentration of phosphatase in the sample was made by assuming that the 5.1 mg of protein per mL in the sample was 100% pure alkaline phosphatase. A molecular weight of 140,000 as also used in calculating molar amounts of enzyme. The conditions were the same as described above with 2c, CTAB, and fluorescer 3 except that the final quantities of enzyme in the 3 mL solutions were:
Enzymatic triggering experiments such as those described above were also carried out in Immumlon™ microtitre wells from Dynatech, Inc. made of transparent polystyrene. The wells were used individually and placed in a light-tight holder which could be thermostatted. The chemiluminescence was detected at the bottom of the well using a fiber optic connected to the photon-counting luminometer described previously. This experimental set-up allowed much smaller reaction volumes to be used. For example, a series of experiments using dioxetane 2c, CTAB, and 3 in 200 μL of 221 buffer with amounts of alkaline phosphatase ranging from 5×10^-15 to 2×10^-18 moles (or 2 attomoles) were carried out. […] A more realistic assumption for the purity of the enzyme sample might be 10%.

[6] = cited from earlier work
[7] = base, CTAB 1.5×10^-3 M with fluorescein surfactant 3 (9×10^-5 M), 37° C.
[8] = thermal decomposition in xylene
[9] = benzothiazamide surfactant 4 as co-surfactant, similar experiments with 2b/CTAB/base

COC1(c2cccc(O[Si](C)(C)C(C)(C)C)c2)OOC12C1CC3CC(C1)CC2C3 (centres unmarked)
decomposition on the laboratory bench (in o-xylene, several months): no detectable decomposition
activation energy (thermal decomposition): 28.4 kcal/mol
chemiluminescence efficiency [1]: 25%
chemiluminescence quantum yield [1]: 0.25
efficiency for the formation of the singlet excited ester ([1]; corrected for fluorescence quantum yield of the ester): 57%
maximum of the chemiluminescence spectrum ([1]; fluoride, DMSO): 470 nm

COC1(c2cccc(OC(C)=O)c2)OOC12C1CC3CC(C1)CC2C3 (centres unmarked) [2b, 4-(3-Acetoxyphenyl)-4-methoxyspiro[1,2-dioxetane-3,2'-adamantane]]
increase in the chemiluminescence quantum yield ([2]; CTAB above cmc vs water, 37° C.): 19 fold
chemiluminescence quantum yield (.PHI.CL) ([2]; base in DMSO): 0.25
light yield (chemiluminescence quantum yield) ([2]; base in water): 8.9×10^-6
chemiluminescence efficiency [2, 7]: 1.4%
chemiluminescence quantum yield (.PHI.CL) [2, 7]: 0.014
chemiluminescence quantum yield (.PHI.Cl) ([2]; base, CTAB above critical micelle concentration, 37° C.): 1.7×10^-4
increase over the luminescence in the absence of CTAB and 3 ([2]; base, CTAB with fluorescein surfactant 3, 37° C.): 500 fold
half-life [3]: 4750 days
Ea [3, 8]: 30.4
Log A [3, 8]: 13.6
k(sec^-1) at 25° C. [3, 8]: 1.73e-09 s⁻¹

COC1(c2cccc(OP(=O)(O)O)c2)OOC12C1CC3CC(C1)CC2C3 (centres unmarked) [2c, 4-Methoxy-4-(3-phosphatephenyl)spiro[1,2-dioxetane-3,2'-adamantane], disodium salt]
integrated light intensity vs amount of antigen (S-antigen; 1.3 to 112 ng S-antigen): correlates with the amount of antigen coated on the well
reagent background luminescence (S-antigen; 2c 1.36×10^-4 M, CTAB and 3, pH 9.1, 37° C.): 15 - 20 counts/sec
photographic detection, control well with buffer and dioxetane only (S-antigen; ASA 3000 Polaroid film): not visible
light intensity (constant level) ([4]; 10^-5 M 2c, 100 μL serum, 221 buffer pH 10.3, 37° C.): approximately 2.3×10^4 counts/sec
light intensity at the plateau vs enzyme concentration ([4]; 100 to 1 μL of serum): directly proportional to the enzyme concentration
background luminescence signal from non-enzymatic hydrolysis, of enzyme-generated value ([4]; 221 buffer pH 10.3, 37° C.): less than 0.05%
period of chemiluminescence ([5]; 12 pg/mL protein, CTAB and 3, 37° C.): 45 min
detection of alkaline phosphatase ([5]; 200 μL 221 buffer, CTAB and 3, enzyme purity of 10% assumed): less than 0.2 attomoles
chemiluminescence quantum yield ([5]; 221 buffer pH 9.1, 37° C., no CTAB): 3.1×10^-5
period over which light intensity increases ([5]; CTAB and fluorescer, depending on enzyme concentration): 30 to 60 min
background signal from non-enzymatic hydrolysis ([5]; buffer/co-micelle environment): only a few
chemiluminescence quantum yield (.PHI.Cl) ([5]; with CTAB (1.13×10^-3 M)): 2.1×10^-4
increase compared to the enzymatic reaction in the absence of CTAB and 3 ([5]; with CTAB and fluorescein surfactant 3): 500 fold
chemiluminescence quantum yield (.PHI.Cl) ([5]; with CTAB and fluorescein surfactant 3 (5.6×10^-5 M), pH 9.1, 37° C.): 0.015
chemiluminescence efficiency ([5]; with CTAB and fluorescein surfactant 3, pH 9.1, 37° C.): 1.5%
Ea ([3]; Arrhenius plot, o-xylene, 80° to 120° C.): 32.5 kcal/mol
half-life [3]: 6940 days
Ea [3, 8]: 32.5
Log A [3, 8]: 14.9
k(sec^-1) at 25° C. [3, 8]: 1.19e-09 s⁻¹

COC1(c2cccc(O)c2)OOC12C1CC3CC(C1)CC2C3 (centres unmarked) [aryloxide-substituted dioxetane]
half-life (aryloxide form, 25° C.): 5 s

CCCCCCCCCCCCCCCCNC(=O)c1nc2ccc(O)cc2s1 [compound 4, 1-Hexadecyl-6-hydroxy-2-benzothiazamide]
chemiluminescence efficiency [2, 9]: 0.3%
λmax [2, 9]: 506 nm

Oc1ccc(C23OCCOC2(c2ccccc2)OO3)cc1 (centres unmarked) [deprotonated dioxetane (X=O^-)]
decomposition rate relative to protonated form (X=OH) ([6]; 25° C.): 5.7×10^6 times

Oc1ccc(C23OCCOC2(c2ccccc2)OO3)cc1 (centres unmarked) [hydroxy-substituted dioxetane (X=OH)]
half-life for decomposition at room temperature ([6]; 25° C.): 2.38 days
luminescence with base ([6]; base at -30° C.): a flash of blue light
luminescence upon heating ([6]; elevated temperatures): very low levels of luminescence
